Results as given in patent US7112559B1, “Thickened quaternary ammonium compound sanitizer” (Ecolab Inc., priority 2005, dated 2006).

Assays:
[1] = test system: Salmonella typhi, ATCC # 6539; assay: Bactericidal efficacy vs. chlorine standard (available chlorine equivalence); type: cell-based; set-up: key to Growth in Test Tube 8 / Growth in Test Tube 9 / Growth in Test Tube 10 / Growth in Test Tube 1 / Growth in Test Tube 2 / Growth in Test Tube 3 / Growth in Test Tube 4 / Growth in Test Tube 5 / Growth in Test Tube 6 / Growth in Test Tube 7: (+) = growth; (−) = no growth; conditions: S. typhi
Procedure: (§1) Example 2 compared the bactericidal efficacy of the thickened quaternary ammonium compound sanitizer composition (Formula 7) to that of a known concentration of chlorine. […] The mix order for Formula 7 is as follows: (1) water; (2) propylene glycol; (3) LonzaGuard; (4) FD&C Red #40; (5) Methocel; (6) Triethanolamine; and (7) Ethanol. Formula 7 and the chlorine standard were tested against Staphylococcus aureus, ATCC # 6538 and Salmonella typhi, ATCC # 6539. The chlorine standard was prepared by adding 0.1 ml of a 5% NaOCl stock solution (refrigerated Clorox® bleach) to 100 ml of sterile phosphate buffer solution to create a 50–55 ppm available chlorine concentration.
(§2) For the chlorine standard test, 0.05 ml of the test culture was added to a test tube with 50 ppm available chlorine. The test tube was placed in a 20° C. water bath. After 1 minute, the solution was transferred to test tube 1 with 10 ml of Fluid Thioglycollate medium (commercially available from Becton Dickinson (Sparks, Md.)). These steps were repeated for nine test tubes.
(§3) For Formula 7, the same series of test tubes used for the available chlorine test was used to test the quaternary ammonium compound sanitizer composition. 0.05 ml of test culture was added to Formula 7. The test tube was placed in a 20° C. water bath. After 1 minute, the solution was transferred to a test tube with 10 ml of Letheen broth in place of the Fluid Thioglycollate medium.
(§4) The formulas in Table 4 were tested with Staphylococcus aureus, ATCC # 6538 and Salmonella typhi, ATCC # 6539. […] A “+” sign means that the test tube had bacteria growth.
(§5) Equivalency is met when the sample tubes have an absence of growth in as many tubes as the chlorine standard.

[2] = test system: Staphylococcus aureus, ATCC # 6538; assay: as above; type: cell-based; set-up: key to Growth in Test Tube 8 / Growth in Test Tube 9 / Growth in Test Tube 10 / Growth in Test Tube 1 / Growth in Test Tube 2 / Growth in Test Tube 3 / Growth in Test Tube 4 / Growth in Test Tube 5 / Growth in Test Tube 6 / Growth in Test Tube 7: (+) = growth; (−) = no growth; conditions: S. aureus
Procedure: as §1, §2, §3, §4, §5

[3] = text does not separate the organisms

## [Na+].[O-]Cl [NaOCl]
[1]; 1 minute, 20° C.
  Growth in Test Tube 1: −
  Growth in Test Tube 2: −
  Growth in Test Tube 3: +
  Growth in Test Tube 4: +
  Growth in Test Tube 5: +
  Growth in Test Tube 6: +
  Growth in Test Tube 7: +
  Growth in Test Tube 8: +
  Growth in Test Tube 9: +
  Growth in Test Tube 10: +
[1]; [3]
  Growth in tubes 1–10: growth in tubes 3–10
[2]; 1 minute, 20° C.
  Growth in Test Tube 1: −
  Growth in Test Tube 2: −
  Growth in Test Tube 3: +
  Growth in Test Tube 4: +
  Growth in Test Tube 5: +
  Growth in Test Tube 6: +
  Growth in Test Tube 7: +
  Growth in Test Tube 8: +
  Growth in Test Tube 9: +
  Growth in Test Tube 10: +
[2]; [3]
  Growth in tubes 1–10: growth in tubes 3–10
